Consider one molecule from US9895338B1, “Cobalt-polypyridyl complex for treatment of cancer, a pharmaceutical composition and a kit comprising it” (Macau University of Science and Technology, priority 2016, dated 2018).

By pIC50 is commonly meant −log10 of the IC50, conventionally taken in molar units.

One assay relates to HepG2 (liver cancer). The experiment in a line: MTT cytotoxicity assay, HepG2. The assay is classed as cell-based. To be noted: 72 h. Here is the method:
(§1) All prepared cobalt-polypyridyl complexes were dissolved in DMSO at a final concentration of 50 mmol/L and stored at −20° C. before use. Cytotoxicity was assessed by using the 3-(4,5-dimethylthiazol-2-yl)-2,5-diphenyltetrazolium bromide (MTT) (5.0 mg/ml) assay as previously described (Wong, V. K. et al., Cell Death Dis, 2013, 4, e720). Briefly, 4×10^3 cells per well were seeded in 96-well plates before drug treatments. After overnight culture, the cells were then exposed to different concentrations of selected compounds (0.039-100 μmol/L) for 72 h. Cells without drug treatment were used as control. Subsequently, MTT (10 μL) solution was added to each well and incubated at 37° C. for 4 h followed by the addition of 100 μL solubilization buffer (10% SDS in 0.01 mol/L HCl) and overnight incubation. A570 nm was then determined in each well on the next day. The percentage of cell viability was calculated using the following formula: Cell viability (%)=Atreated/Acontrol×100. Data were obtained from three independent experiments. Cells include HeLa cells (cervical cancer), MCF-7 (breast cancer), H1299, H1975, A549 and LLC-1 (lung cancer), HepG2 and Hep3B (liver cancer) and LO2 (normal human hepatocytes).
Background: Formazan colour is commonly taken as a measure of viable cells.

In assay [1] the test system is endogenous LC3-II puncta formation in HeLa cancer cells. The following applies: HeLa, 5, 10, 20 μM.
Protocol: The detection of endogenous LC3 was conducted using immunofluorescence staining method as described below. HeLa cancer cells treated with the cobalt-polypyridyl complex of Formula (IV) (with PF6^− as counterion) on cover slips were fixed with 4% paraformaldehyde (Sigma) for 20 min at room temperature and then rinsed with PBS. Coverslips were immersed in methanol at room temperature for 2 min. After washing with PBS, the cells were then incubated with anti-LC3 (1:200) in TBST (100 mM TrisHCl, pH 7.5, 150 mM NaCl, 0.05% Tween 20 and 5% BSA) overnight at 4° C. […] The coverslips were then mounted with FluorSave™ mounting media (Calbiochem, San Diego, Calif., USA) for fluorescence imaging and localization of LC3 autophagosomes were captured under the API Delta Vision Live-cell Imaging System (Applied Precision Inc., GE Healthcare Company, Washington, USA). To quantify autophagy, guidelines of autophagy quantitation were followed (Klionsky, D. J. et al., Autophagy, 2016, 12, 1-222). The percentage of cells with autophagic induction was calculated by the number of the cells with increased formation of punctate LC3 fluorescence dots (≧10 dots/cell) over the total number of immunofluorescence-positive cells in the same field. A minimum of 1000 cells from randomly selected fields were scored.
For assay [2], the system named is human H1299 lung cancer cells. To be noted: H1299, sub-lethal doses 0.2, 0.5, 1.0 μM. Here is the method: The cancer cell invasion assay was performed in a Cell Invasion Chamber, a 24-well tissue culture plate with cell culture inserts that contain an […] pore size polycarbonate membrane over a thin layer of dried ECMatrix™ (CHEMICON).
To determine the inhibitory effect of cobalt-polypyridyl complexes of the present invention in cancer cell invasion, human H1299 lung cancer cells with well-known cell invasion ability were treated with the cobalt-polypyridyl complex of Formula (IV) in its sub-lethal (non-toxic) doses.

Assay [3] has as its system LC3-II protein conversion. The experiment in a line: Western blotting of LC3-I to LC3-II conversion. The assay is classed as cell-based. The following applies: Western blot; complex at 10 μM and 20 μM. On the procedure:
After drug treatment, adherent and floating cells were lysed with RIPA lysis buffer. Protein concentrations were determined using the Bio-Rad protein assay (Bio-Rad Laboratories, Inc., Hercules, Calif., USA). The cell lysates of samples were subjected to electrophoresis on SDS polyacrylamide gels and transferred to Hybond enhanced chemiluminescence nitrocellulose membranes (Amersham Biosciences, Piscataway, N.J.), which were then blocked with 5% non-fat dry milk protein for 1 h. Membranes were then incubated with the indicated primary antibodies overnight at 4° C. The binding of the antibody was visualized by peroxidase-coupled secondary antibody using the ECL Western Blotting Detection Reagents (Invitrogen, Paisley, Scotland, UK). Band intensities were quantified by using the software ImageJ (NIH, Bethesda, Md., USA).
For orientation: A western blot detects proteins with antibodies after separation by electrophoresis.

Assay [4] deals with Taxol-sensitive A549 cancer cells. The experiment in a line: MTT cytotoxicity, taxol-sensitive A549. The assay is classed as cell-based. The following applies: 72 h. On the procedure: as §1, with “experiments.” for “experiments. Cells include HeLa cells (cervical cancer), MCF-7 (breast cancer), H1299, H1975, A549 and LLC-1 (lung cancer), HepG2 and Hep3B (liver cancer) and LO2 (normal human hepatocytes).”

Another assay relates to H1975 (lung cancer). The experiment in a line: MTT cytotoxicity assay, H1975. To be noted: 72 h. The assay is classed as cell-based. Here is the method:
as §1

The subject of the next assay is H1299 (lung cancer). The experiment in a line: MTT cytotoxicity assay, H1299. To be noted: 72 h. Format: cell-based, human. On the procedure:
as §1

Assay [5] concerns Taxol-sensitive HCT8 cancer cells. The experiment in a line: MTT cytotoxicity, taxol-sensitive HCT8. Format: cell-based. To be noted: 72 h. Here is the method: as §1, with “experiments.” for “experiments. Cells include HeLa cells (cervical cancer), MCF-7 (breast cancer), H1299, H1975, A549 and LLC-1 (lung cancer), HepG2 and Hep3B (liver cancer) and LO2 (normal human hepatocytes).”

Another assay has as its system HeLa cancer cells. Here is the method: For cell cycle analysis, the cells were harvested and washed with ice-cold phosphate-buffered saline (PBS), and then suspended and permeabilized with 70% ethanol for overnight at 4° C. For detecting DNA content and cell cycle, cells were incubated with the freshly prepared propidium iodide (PI) staining buffer for 30 min at room temperature in dark. Fractions of the cells in G1, S, and G2/M phase were analyzed using Modfit software 3.1.
To investigate whether the cobalt-polypyridyl complexes could suppress cancer cell growth by arresting cell cycle progression, HeLa cancer cells were treated with different concentrations of the cobalt-polypyridyl complex of Formula (IV) (with PF6^− as counterion).

The test system of the next assay is Hep 3B (liver cancer). The experiment in a line: MTT cytotoxicity assay, Hep3B. The assay is classed as cell-based. To be noted: 72 h. Here is the method:
as §1

The subject of assay [6] is HCT116 p53^+/+ colon cancer cells. The experiment in a line: MTT cytotoxicity, HCT116 p53+/+. Format: cell-based, human. The following applies: 72 h. Here is the method: as §1, with “experiments.” for “experiments. Cells include HeLa cells (cervical cancer), MCF-7 (breast cancer), H1299, H1975, A549 and LLC-1 (lung cancer), HepG2 and Hep3B (liver cancer) and LO2 (normal human hepatocytes).”
(§2) Cisplatin-sensitive or -resistant A2780, OV2008 and C13 cancer cells were provided by Prof. Benjamin Tsang (Department of Obstetrics and Gynecology and Department of Cellular and Molecular Medicine, University of Ottawa, Canada). HCT116 p53^+/+ and p53^−/− isogenic human colon cancer cells were provided by Professor Bert Vogelstein (Ludwig Center at Johns Hopkins, Howard Hughes Medical Institute, USA). All media were supplemented with 10% fetal bovine serum and the antibiotics penicillin (50 U/ml) and streptomycin (50 μg/ml; Invitrogen, Paisley, Scotland, UK). All cell cultures were incubated at 37° C. in a 5% humidified CO2 incubator.

Assay [7] concerns HeLa cells (cervical cancer). The experiment in a line: MTT cytotoxicity assay, HeLa. The assay is classed as cell-based. To be noted: 72 h. On the procedure: as §1
Assay [8] relates to OV2008 cervical cancer cells. The experiment in a line: MTT cytotoxicity, OV2008 (cisplatin-sensitive). To be noted: 72 h. The assay is classed as cell-based. On the procedure: as §1, with “experiments.” for “experiments. Cells include HeLa cells (cervical cancer), MCF-7 (breast cancer), H1299, H1975, A549 and LLC-1 (lung cancer), HepG2 and Hep3B (liver cancer) and LO2 (normal human hepatocytes).”
as §2

The subject of assay [9] is Taxol-resistant MCF-7 cancer cells. The experiment in a line: MTT cytotoxicity, taxol-resistant MCF-7. The assay is classed as cell-based. Here is the method:
as §1, with “experiments.” for “experiments. Cells include HeLa cells (cervical cancer), MCF-7 (breast cancer), H1299, H1975, A549 and LLC-1 (lung cancer), HepG2 and Hep3B (liver cancer) and LO2 (normal human hepatocytes).”
All cells were obtained from the American Type Culture Collection (Rockville, Md., USA) unless otherwise specified. Immortalized wild-type and Atg7-deficient mouse embryonic fibroblasts (MEFs) were provided by Professor Masaaki Komatsu (Juntendo University, School of Medicine, Japan). Taxol-resistant types of A549, MCF-7, HCT-8 cancer cells, cisplatin-resistant SGC7901 cancer cells were purchased from KeyGEN BioTECH, China.

pIC50: −log10 of the molar value. Where two headings read alike, the source gives them in different places.

For the molecule `Cc1ccnc(-c2cc(C)ccn2)c1.Cc1ccnc(-c2cc(C)ccn2)c1.Cc1ccnc(-c2cc(C)ccn2)c1.F[P-](F)(F)(F)(F)F.F[P-](F)(F)(F)(F)F.F[P-](F)(F)(F)(F)F.[Co+3]` [complex (IV), [Co^III(4,4′-Me2-Bpy)3.](PF6)3], the pIC50 was 5.26 in the assay on HepG2 (liver cancer); 4.94 in assay [4]; 5.05 in the assay on H1975 (lung cancer); 5.55 in the assay on H1299 (lung cancer); 5.47 in assay [5]; 5.43 in the assay with Hep 3B (liver cancer). Moreover, the pIC50 in [6] was 4.81; in assay [7], 4.92; in assay [8], 5.12; in assay [9] (MCF-7, MTT, 72 h), 5.57. Besides, in assay [1], the “endogenous LC3-II puncta formation (autophagy induction)” value is “induce autophagy in dose-dependent manner”. The “cell invasion (fluorescence signal of invaded cells)” value in assay [2] is reported as “dose-dependently decrease the cell fluorescence signal”. The “LC3-I to LC3-II protein conversion” value in [3] is reported as “dose-dependently increased the LC3-II protein conversion”. For the same molecule, the “effect on cell cycle progression” value is on record as “arrest HeLa cancer cell in S-phase” with HeLa cancer cells (high concentration) and “negligible effect on cell cycle progression” with HeLa cancer cells (low concentration). Further, the “Resistant Factor” value in [9] (MCF-7, IC50 taxol-resistant over IC50 taxol-sensitive) is 0.68.
